Measured values as given in DBAASP.
In brackets after ≈: the same amount, converted by molar mass.

Columns and labels:
Assay in all cases: ≥ marks a high value that may be exact or a test limit, other limits are often not marked, values filed in µg/mL are converted to µM
[1] = test system: Pseudomonas aeruginosa
[2] = test system: Escherichia coli B
[3] = test system: Escherichia coli 363
[4] = test system: Staphylococcus aureus
[5] = test system: Salmonella enterica subsp. enterica serovar Typhimurium ATCC 14028
[6] = test system: Escherichia coli ML-35
[7] = test system: Staphylococcus aureus ATCC 25923
[8] = test system: Bacillus megaterium Bm11
[9] = test system: Proteus mirabilis
[10] = test system: Escherichia coli
[11] = test system: Staphylococcus aureus ATCC 33591
[12] = test system: Staphylococcus epidermidis ATCC 35984
[13] = test system: Pseudomonas aeruginosa ATCC 27853
[14] = test system: Candida albicans F7-39/IDE99
[15] = test system: Micrococcus luteus CCM 144
[16] = test system: Bacillus subtilis 168
[17] = test system: Bacillus subtilis var. niger ATCC 9372
[18] = test system: Burkholderia thailandensis
[19] = test system: Escherichia coli K91BK
[20] = test system: Bacillus anthracis Sterne 34F2
[21] = test system: Streptococcus mutans
[22] = test system: Candida parapsilosis ATCC 22019
[23] = test system: Candida albicans ATCC 24433
[24] = test system: Staphylococcus aureus ATCC 43300
[25] = test system: Staphylococcus epidermidis
[26] = test system: Salmonella typhimurium
[27] = test system: Micrococcus luteus ATCC 9341
[28] = test system: Escherichia coli DH5alpha
[29] = test system: Klebsiella pneumoniae

Compound: CC[C@H](C)[C@H](NC(=O)[C@H](CCCCN)NC(=O)[C@H](CO)NC(=O)[C@H](Cc1c[nH]c2ccccc12)NC(=O)[C@H](CC(C)C)NC(=O)CN)C(=O)N[C@@H](CCCCN)C(=O)N[C@@H](CCC(=O)O)C(=O)N[C@H](C(=O)NCC(=O)N[C@@H](CCCCN)C(=O)N[C@@H](CCC(=O)O)C(=O)N[C@@H](C)C(=O)N[C@@H](C)C(=O)N[C@@H](CCCCN)C(=O)N[C@@H](C)C(=O)N[C@@H](C)C(=O)N[C@@H](C)C(=O)N[C@@H](CCCCN)C(=O)N[C@@H](C)C(=O)N[C@@H](C)C(=O)NCC(=O)N[C@@H](CCCCN)C(N)=O)C(C)C [GLWSKIKEVGKEAAKAAAKAAGK]
- MIC [1]: 100 µM (≈ 231 µg/mL)
- MIC [2]: ≥ 50 µM
- MIC [3]: 25 µM (≈ 57.8 µg/mL)
- MIC [4]: > 100 µM

Compound: CC[C@H](C)[C@H](NC(=O)[C@H](CCCCN)NC(=O)[C@H](CCCCN)NC(=O)[C@H](Cc1ccccc1)NC(=O)[C@H](CCCCN)NC(=O)[C@H](CCC(=O)O)NC(=O)CNC(=O)[C@@H](NC(=O)[C@H](CCCCN)NC(=O)[C@H](CCCCN)NC(=O)[C@H](CC(C)C)NC(=O)[C@H](Cc1ccccc1)NC(=O)[C@H](CC(=O)O)NC(=O)[C@H](CCCNC(=N)N)NC(=O)[C@H](CC(C)C)NC(=O)[C@H](CCCNC(=N)N)NC(=O)[C@H](CCCNC(=N)N)NC(=O)[C@H](CC(C)C)NC(=O)[C@H](CC(C)C)NC(=O)CN)[C@@H](C)CC)C(=O)NCC(=O)N[C@H](C=O)Cc1ccc(O)cc1 [GLLRRLRDFLKKIGEKFKKIGY]
- MIC [5]: 4 µM (≈ 10.7 µg/mL)
- MIC [6]: 4 µM (≈ 10.7 µg/mL)
- MIC [7]: 4 µM (≈ 10.7 µg/mL)
- MIC [8]: 1 µM (≈ 2.66 µg/mL)
- MIC [4]: 2 µM (≈ 5.33 µg/mL)
- MIC [9]: ≥ 32 µM
- MIC [10]: 4 µM (≈ 10.7 µg/mL)

Compound: CC[C@H](C)[C@H](NC(=O)[C@H](CCCCN)NC(=O)[C@@H](NC(=O)[C@H](Cc1ccccc1)NC(=O)[C@H](C)NC(=O)[C@H](CCCCN)NC(=O)CNC(=O)[C@H](Cc1ccccc1)NC(=O)[C@H](CCCCN)NC(=O)[C@H](CCCCN)NC(=O)[C@H](C)NC(=O)[C@@H](N)CCCCN)C(C)C)C(N)=O [KAKKFGKAFVKI]
- MIC [11]: ≥ 375 µM
- MIC [12]: ≥ 133 µM
- MIC [7]: > 375 µM
- MIC [13]: 66.3 µM (≈ 90.4 µg/mL)

Compound: CC[C@H](C)[C@H](NC(=O)CNC(=O)[C@H](C)NC(=O)[C@H](Cc1c[nH]c2ccccc12)NC(=O)[C@H](CC(C)C)NC(=O)[C@@H](N)CC(N)=O)C(=O)N[C@@H](CC(C)C)C(=O)N[C@@H](CCCCN)C(=O)N[C@@H](Cc1cnc[nH]1)C(=O)N[C@H](C(=O)N[C@H](C(=O)N[C@@H](CCCCN)C(N)=O)[C@@H](C)CC)[C@@H](C)CC [NLWAGILKHIIK]
- MIC [1]: > 100 µM
- MIC [2]: 12.5 µM (≈ 17.6 µg/mL)
- MIC [14]: 10.8 µM (≈ 15.2 µg/mL)
- MIC [15]: 2.5 µM (≈ 3.51 µg/mL)
- MIC [4]: 36.7 µM (≈ 51.6 µg/mL)
- MIC [16]: 4.5 µM (≈ 6.32 µg/mL)

Compound: CC[C@H](C)[C@H](NC(=O)[C@H](CCCCN)NC(=O)[C@H](CCCN=C(N)N)NC(=O)CNC(=O)[C@H](CC(C)C)NC(=O)[C@H](CCCN=C(N)N)NC(=O)[C@H](CCCN=C(N)N)NC(=O)[C@H](CC(C)C)NC(=O)CNC(=O)[C@H](CCCN=C(N)N)NC(C)=O)C(=O)N[C@@H](C)C(=O)N[C@@H](Cc1cnc[nH]1)C(=O)NCC(=O)N[C@H](C(=O)N[C@@H](CCCCN)C(=O)N[C@@H](CCCCN)C(=O)NCC(=O)NCC(=O)N1CCC[C@H]1C(=O)N[C@H](C(=O)N[C@H](C(=O)N[C@@H](CC(C)C)C(=O)N[C@@H](CCCN=C(N)N)C(=O)N[C@H](C(=O)N[C@H](C(=O)N[C@@H](CCCN=C(N)N)C(=O)N[C@H](C(=O)N[C@@H](C)C(=O)NCC(N)=O)[C@@H](C)CC)[C@@H](C)CC)[C@@H](C)CC)C(C)C)[C@@H](C)O)C(C)C [RGLRRLGRKIAHGVKKGGPTVLRIIRIAG]
- MIC [17]: 7.87 µM (≈ 25.1 µg/mL)
- MIC [18]: ≥ 100 µM
- MIC [19]: ≥ 100 µM
- MIC [20]: ≥ 70.2 µM

Compound: CC[C@H](C)[C@H](NC(=O)[C@H](CCC(N)=O)NC(=O)[C@H](CCCCN)NC(=O)[C@H](Cc1ccccc1)NC(=O)[C@@H](NC(=O)[C@H](CCC(N)=O)NC(=O)[C@H](CC(C)C)NC(=O)[C@H](CC(C)C)NC(=O)[C@@H](N)CCCCN)[C@@H](C)O)C(=O)N[C@@H](Cc1ccccc1)C(=O)N[C@@H](CCCN=C(N)N)C(=O)O [KLLQTFKQIFR]
- MIC [21]: ≥ 176 µM

Compound: CC(C)C[C@H](NC(=O)[C@H](CCCN=C(N)N)NC(=O)[C@H](CCC(N)=O)NC(=O)[C@H](Cc1cnc[nH]1)NC(=O)[C@@H](NC(=O)[C@H](CCCN=C(N)N)NC(=O)[C@H](CC(C)C)NC(=O)[C@H](CCC(=O)O)NC(=O)[C@H](CO)NC(=O)[C@H](CCCN=C(N)N)NC(=O)[C@@H](N)CO)C(C)C)C(=O)N[C@@H](Cc1ccccc1)C(N)=O [SRSELRVHQRLF]
- MIC [22]: ≥ 262 µM
- MIC [23]: ≥ 262 µM

Compound: CC[C@H](C)[C@H](NC(=O)CN)C(=O)N[C@@H](CCSC)C(=O)N[C@@H](CO)C(=O)N[C@@H](CO)C(=O)N[C@@H](CC(C)C)C(=O)N[C@@H](CCSC)C(=O)N[C@@H](CCCCN)C(=O)N[C@@H](CCCCN)C(=O)N[C@@H](CC(C)C)C(=O)N[C@@H](CCCCN)C(=O)N[C@@H](C)C(=O)N[C@@H](Cc1cnc[nH]1)C(=O)N[C@H](C(=O)N[C@@H](C)C(=O)N[C@@H](CCCCN)C(N)=O)[C@@H](C)CC [GIMSSLMKKLKAHIAK]
- MIC [24]: > 100 µM
- MIC [1]: 47 µM (≈ 82.5 µg/mL)
- MIC [25]: 16 µM (≈ 28.1 µg/mL)
- MIC [2]: 30 µM (≈ 52.7 µg/mL)
- MIC [14]: 23 µM (≈ 40.4 µg/mL)
- MIC [15]: 3 µM (≈ 5.27 µg/mL)
- MIC [4]: > 100 µM
- MIC [16]: 7 µM (≈ 12.3 µg/mL)
- MIC [13]: 26 µM (≈ 45.6 µg/mL)

Compound: CC(C)C[C@H](NC(=O)[C@H](Cc1ccccc1)NC(=O)[C@H](Cc1cnc[nH]1)NC(=O)[C@H](Cc1ccc(O)cc1)NC(=O)[C@@H](N)CC(C)C)C(=O)N[C@@H](Cc1cnc[nH]1)C(=O)N[C@@H](Cc1c[nH]c2ccccc12)C(=O)N[C@@H](Cc1ccccc1)C(=O)N[C@@H](CCC(N)=O)C(=O)N[C@@H](CCCN=C(N)N)C(=O)N[C@@H](Cc1ccccc1)C(N)=O [LYHFLHWFQRF]
- MIC [21]: ≥ 78.4 µM

Compound: CC[C@H](C)[C@H](N)C(=O)N[C@@H](CC(C)C)C(=O)N[C@@H](C)C(=O)N[C@@H](Cc1c[nH]c2ccccc12)C(=O)N[C@@H](CCCCN)C(=O)N[C@@H](Cc1c[nH]c2ccccc12)C(=O)N1CCC[C@H]1C(=O)N[C@@H](Cc1c[nH]c2ccccc12)C(=O)N[C@@H](Cc1c[nH]c2ccccc12)C(=O)N1CCC[C@H]1C(=O)N[C@@H](Cc1c[nH]c2ccccc12)C(=O)N[C@@H](CCCN=C(N)N)C(=O)N[C@@H](CCCN=C(N)N)C(N)=O [ILAWKWPWWPWRR]
- MIC [26]: ≥ 50 µM
- MIC [1]: 50 µM (≈ 94 µg/mL)
- MIC [27]: 0.4 µM (≈ 0.752 µg/mL)
- MIC [28]: ≥ 35 µM
- MIC [29]: 35 µM (≈ 65.8 µg/mL)

Compound: CC(C)C[C@H](NC(=O)[C@H](CCCN=C(N)N)NC(=O)[C@H](CCC(N)=O)NC(=O)[C@H](Cc1cnc[nH]1)NC(=O)[C@@H](NC(=O)[C@H](CCCCN)NC(=O)[C@H](CC(C)C)NC(=O)[C@H](CCC(=O)O)NC(=O)[C@H](CO)NC(=O)[C@H](CCCN=C(N)N)NC(=O)[C@@H](N)CO)C(C)C)C(=O)N[C@@H](Cc1ccccc1)C(N)=O [SRSELKVHQRLF]
- MIC [22]: ≥ 267 µM
- MIC [23]: ≥ 267 µM

Compound: CC[C@H](C)[C@H](NC(=O)[C@H](CCCCN)NC(=O)[C@H](CCCN=C(N)N)NC(=O)[C@H](CCCCN)NC(=O)[C@H](CC(C)C)NC(=O)[C@H](CCCN=C(N)N)NC(=O)[C@H](CCCN=C(N)N)NC(=O)[C@H](CC(C)C)NC(=O)[C@H](CCCCN)NC(=O)[C@H](CCCN=C(N)N)NC(C)=O)C(=O)N[C@@H](C)C(=O)N[C@@H](Cc1cnc[nH]1)C(=O)N[C@@H](CCCCN)C(=O)N[C@H](C(=O)N[C@@H](CCCCN)C(=O)N[C@@H](CCCCN)C(=O)N[C@@H](Cc1ccc(O)cc1)C(N)=O)C(C)C [RKLRRLKRKIAHKVKKY]
- MIC [17]: ≥ 57.4 µM
- MIC [18]: ≥ 100 µM
- MIC [19]: ≥ 100 µM
- MIC [20]: ≥ 100 µM
